Assay results published in ChEMBL document CHEMBL1201862, “PubChem BioAssay data set” (2004).
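Values below derive from 48-hour exposures of cells grown in 96-well plates, with endpoints linearly interpolated between the two concentrations bracketing the appropriate inhibition level. Here, GI50 denotes the concentration required for 50% inhibition of growth.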 Activity calls are given as the source filed them. No stated cut-off is given here; in the data, active = GI50 up to about 1.1 µM and inactive = higher. Where a SMILES comes first, the peptide text is derived from it. Bridges are numbered along the chain shown (N, C = ends). The star is where a group is joined. Cbz = O=C(OCc1ccccc1)*

How the values were obtained:
Assay in all cases: inhibition of tumour cell growth, NCI panel, 48 h
XF498 = test system: XF498
A549 = test system: A549
EKVX = test system: EKVX
OVCAR-3 = test system: OVCAR-3
U-251 = test system: U-251
UO-31 = test system: UO-31
SF-539 = test system: SF-539
M19-MEL = test system: M19-MEL
HT-29 = test system: HT-29
UACC-257 = test system: UACC-257
SF-295 = test system: SF-295
UACC-62 = test system: UACC-62
TK-10 = test system: TK-10
COLO 205 = test system: COLO 205
SF-268 = test system: SF-268
M14 = test system: M14
HCT-116 = test system: HCT-116
NCI-H226 = test system: NCI-H226
T47D = test system: T47D
MDA-N = test system: MDA-N

Measured: GI50

CC1=C(O)C(=O)C2C(=O)C1C(C)C2c1ccc(C)cc1 (stereo not given)
inactive: XF498 > 100 µM | A549 > 100 µM | EKVX > 100 µM | OVCAR-3 > 100 µM | U-251 > 100 µM | UO-31 > 100 µM | SF-539 > 100 µM | M19-MEL > 100 µM | HT-29 > 100 µM | UACC-257 > 100 µM | SF-295 > 100 µM | UACC-62 > 100 µM | TK-10 > 100 µM | COLO 205 > 100 µM | SF-268 > 100 µM | M14 > 100 µM

Cn1c(=O)c2c(nc(Nc3ccc(Cl)cc3)n3c(=O)n(-c4ccccc4)c(=O)n23)n(C)c1=O
inactive: A549 > 100 µM | HCT-116 > 100 µM | NCI-H226 > 100 µM | EKVX > 100 µM | T47D > 100 µM | OVCAR-3 > 100 µM | U-251 > 100 µM | UO-31 > 100 µM | SF-539 > 100 µM | HT-29 > 100 µM | UACC-257 > 100 µM | MDA-N > 100 µM | SF-295 > 100 µM | UACC-62 > 100 µM | TK-10 > 100 µM | COLO 205 > 100 µM | SF-268 > 100 µM | M14 > 100 µM

C[C@]12CC[C@H](OC(=O)Nc3ccccc3)CC1=CC[C@@H]1C2CC[C@]2(C)/C(=N/OC(=O)Nc3ccccc3)CCC12 (stereo not given in full)
inactive: XF498 1.75 µM | A549 7.85 µM | HCT-116 4.18 µM | EKVX 30.1 µM | OVCAR-3 > 100 µM | U-251 43.7 µM | UO-31 1.92 µM | SF-539 > 100 µM | M19-MEL > 100 µM | HT-29 2.88 µM | SF-295 10 µM | UACC-62 > 100 µM | TK-10 6.61 µM | COLO 205 4.49 µM | SF-268 7.94 µM | M14 12.5 µM

O=[N+]([O-])c1ccc2c(c1)C1=C(CO2)Cc2ccccc2O1
inactive: A549 42.4 µM | HCT-116 16.3 µM | NCI-H226 26.2 µM | EKVX 27.2 µM | T47D 10.9 µM | OVCAR-3 19.8 µM | U-251 17.6 µM | UO-31 13.7 µM | SF-539 23.9 µM | HT-29 26.2 µM | UACC-257 17.8 µM | MDA-N 17.9 µM | SF-295 37.8 µM | UACC-62 19.4 µM | TK-10 26.5 µM | COLO 205 16.8 µM | SF-268 21.3 µM | M14 20.6 µM

O=C1NC(N2CCOCC2)=N/C1=C\c1ccc(O)cc1
inactive: A549 > 100 µM | HCT-116 > 100 µM | NCI-H226 > 100 µM | EKVX > 100 µM | T47D > 100 µM | OVCAR-3 > 100 µM | U-251 > 100 µM | UO-31 > 100 µM | SF-539 > 100 µM | HT-29 > 100 µM | UACC-257 > 100 µM | MDA-N > 100 µM | SF-295 > 100 µM | UACC-62 > 100 µM | TK-10 > 100 µM | COLO 205 > 100 µM | SF-268 > 100 µM | M14 > 100 µM

CC(C)C1N2CCCCC2[C@@H]2c3[nH]c4ccccc4c3CCN12 (stereo not given in full)
inactive: XF498 > 100 µM | A549 > 100 µM | HCT-116 > 100 µM | EKVX > 100 µM | OVCAR-3 > 100 µM | U-251 > 100 µM | UO-31 > 100 µM | SF-539 > 100 µM | M19-MEL > 100 µM | HT-29 > 100 µM | UACC-257 > 100 µM | SF-295 > 100 µM | UACC-62 > 100 µM | COLO 205 > 100 µM | SF-268 > 100 µM | M14 > 100 µM

CCCCC1c2c([nH]c3ccccc23)C2C(=O)N(c3ccc(OC)cc3)C(=O)C2C1CCC (stereo not given)
inactive: A549 5.13 µM | HCT-116 3.01 µM | NCI-H226 5.02 µM | EKVX 3.56 µM | T47D > 10 µM | OVCAR-3 3.36 µM | U-251 8.71 µM | UO-31 4.45 µM | SF-539 2.24 µM | HT-29 3.13 µM | UACC-257 3.61 µM | MDA-N 3.02 µM | SF-295 > 10 µM | UACC-62 2.29 µM | TK-10 4.37 µM | COLO 205 2.59 µM | SF-268 4.35 µM | M14 3.06 µM

N#CC(/C(=N/NC(=O)C(=O)NN)C(=O)NC12CC3CC(CC(C3)C1)C2)c1ccccc1 (stereo not given)
inactive: A549 > 100 µM | HCT-116 > 100 µM | NCI-H226 > 100 µM | EKVX > 100 µM | OVCAR-3 > 100 µM | U-251 > 100 µM | UO-31 > 100 µM | SF-539 > 100 µM | M19-MEL > 100 µM | HT-29 > 100 µM | UACC-257 > 100 µM | SF-295 > 100 µM | UACC-62 > 100 µM | TK-10 > 100 µM | COLO 205 > 100 µM | SF-268 > 100 µM | M14 > 100 µM

COc1ccc(OC(C)=O)c2c1CCC=CC2=O
inactive: XF498 17.3 µM | A549 19.1 µM | HCT-116 18.7 µM | NCI-H226 18.8 µM | OVCAR-3 15.8 µM | U-251 18.3 µM | UO-31 17.2 µM | SF-539 16.9 µM | HT-29 12.3 µM | UACC-257 17.7 µM | SF-295 20.9 µM | UACC-62 13.4 µM | TK-10 18.3 µM | COLO 205 9.2 µM | SF-268 > 10 µM | M14 6.78 µM

COc1ccc(C2SCC(=O)N2NC(=O)c2ccncc2)cc1F (stereo not given)
inactive: XF498 > 100 µM | A549 > 100 µM | HCT-116 > 100 µM | NCI-H226 > 100 µM | U-251 > 100 µM | HT-29 > 100 µM | UACC-257 > 100 µM | SF-295 > 100 µM | TK-10 > 100 µM | COLO 205 > 100 µM | SF-268 > 100 µM | M14 > 100 µM

COc1cc(/C=N\O)cc(/C=N/O)c1O
inactive: A549 > 100 µM | HCT-116 33.4 µM | NCI-H226 24.2 µM | EKVX 60.3 µM | T47D 26.4 µM | OVCAR-3 63 µM | U-251 37.9 µM | UO-31 5.94 µM | SF-539 24.4 µM | HT-29 39.4 µM | UACC-257 74 µM | MDA-N 39.9 µM | SF-295 17.1 µM | UACC-62 68.1 µM | TK-10 > 100 µM | COLO 205 22.5 µM | SF-268 35.7 µM | M14 20 µM

Nc1nc(SCc2ccc([N+](=O)[O-])cc2)nc2c1ncn2C1OC(COP(=O)(O)O)C(O)C1O (stereo not given)
inactive: XF498 > 100 µM | A549 > 100 µM | HCT-116 > 100 µM | NCI-H226 > 100 µM | EKVX > 100 µM | OVCAR-3 > 100 µM | U-251 > 100 µM | SF-539 > 100 µM | HT-29 > 100 µM | UACC-257 > 100 µM | SF-295 > 100 µM | UACC-62 > 100 µM | TK-10 > 100 µM | COLO 205 > 100 µM | SF-268 > 100 µM | M14 > 100 µM

O=C1C=CC2(C=C1)C[C@H](NC(=O)C(F)(F)F)C(=O)O2
inactive: A549 > 100 µM | HCT-116 58.9 µM | NCI-H226 > 100 µM | EKVX 18.2 µM | OVCAR-3 > 100 µM | U-251 54.3 µM | UO-31 > 100 µM | SF-539 34.7 µM | M19-MEL 23.6 µM | HT-29 79.6 µM | UACC-257 34.8 µM | SF-295 > 100 µM | UACC-62 18.1 µM | TK-10 > 100 µM | COLO 205 29.6 µM | SF-268 37.9 µM | M14 73.8 µM

N#Cc1c(-c2ccc([N+](=O)[O-])cc2)cc(-c2ccc(Nc3ccnc4cc(C(F)(F)F)ccc34)cc2)nc1N
inactive: A549 13 µM | HCT-116 6.92 µM | NCI-H226 > 48.3 µM | EKVX 36.1 µM | T47D 7.89 µM | OVCAR-3 12.9 µM | U-251 6.34 µM | UO-31 14.7 µM | SF-539 26.9 µM | HT-29 5.13 µM | UACC-257 > 50 µM | MDA-N 9.77 µM | SF-295 15.9 µM | UACC-62 62.4 µM | TK-10 > 48.2 µM | COLO 205 28.3 µM | SF-268 33 µM | M14 11.7 µM

COC(=O)C1CCCCNC(=O)CCC(NC(=O)OCc2ccccc2)C(=O)N1 (stereo not drawn) (Cbz-Glu-Lys-OMe; lactam 1-2; configuration not given here)
inactive: A549 > 100 µM | HCT-116 > 100 µM | NCI-H226 > 100 µM | EKVX > 100 µM | T47D > 100 µM | OVCAR-3 > 100 µM | U-251 39.3 µM | UO-31 > 100 µM | SF-539 > 100 µM | HT-29 > 100 µM | UACC-257 > 100 µM | MDA-N > 100 µM | SF-295 50.1 µM | UACC-62 > 100 µM | TK-10 > 100 µM | COLO 205 > 100 µM | SF-268 56.1 µM | M14 > 100 µM

CCOS(C)(=O)=O [METHANESULFONIC ACID ETHYL ESTER]
inactive: A549 > 100 µM | HCT-116 > 100 µM | NCI-H226 > 100 µM | EKVX > 100 µM | T47D > 100 µM | OVCAR-3 > 100 µM | U-251 > 100 µM | UO-31 > 100 µM | SF-539 > 100 µM | HT-29 > 100 µM | UACC-257 > 100 µM | MDA-N > 100 µM | SF-295 > 100 µM | UACC-62 > 100 µM | TK-10 > 100 µM | COLO 205 > 100 µM | SF-268 > 100 µM | M14 > 100 µM
